Laboratory results reported in ChEMBL document CHEMBL3045499, “Chem-bioinformatics and in vitro approaches for candidate optimization: a case study of NSC745689 as a promising antitumor agent” (Med Chem Res, 2013).
pIC50: −log10 of the molar value. Activity calls are given as the source filed them. No cut-off for these calls is given here.

Tests used:
[1] = system: SF-539; assay: Growth inhibition of Homo sapiens (human) SF539 cells after 48 hr by SRB assay; assay type: functional; settings: SF-539, 48 h
[2] = system: NCI-H322M; assay: Growth inhibition of Homo sapiens (human) NCI-H322M cells after 48 hr by SRB assay; assay type: functional
[3] = system: K562; assay: Growth inhibition of Homo sapiens (human) K562 cells after 48 hr by SRB assay; assay type: functional; settings: K562, 48 h
[4] = system: U-251; assay: Growth inhibition of Homo sapiens (human) U251 cells after 48 hr by SRB assay; assay type: functional; settings: U-251, 48 h
[5] = system: SR; assay: Growth inhibition of Homo sapiens (human) SR cells after 48 hr by SRB assay; assay type: functional
[6] = system: MDA-MB-435; assay: Growth inhibition of Homo sapiens (human) MDA-MB-435 cells after 48 hr by SRB assay; assay type: functional; settings: MDA-MB-435, 48 h
[7] = system: MDA-MB-231; assay: Growth inhibition of Homo sapiens (human) MDA-MB-231/ATCC cells after 48 hr by SRB assay; assay type: functional; settings: MDA-MB-231, 48 h
[8] = system: NCI-H23; assay: Growth inhibition of Homo sapiens (human) NCI-H23 cells after 48 hr by SRB assay; assay type: functional; settings: NCI-H23, 48 h
[9] = system: RPMI-8226; assay: Growth inhibition of Homo sapiens (human) RPMI8226 cells after 48 hr by SRB assay; assay type: functional; settings: RPMI-8226, 48 h
[10] = system: NCI-H226; assay: Growth inhibition of Homo sapiens (human) NCI-H226 cells after 48 hr by SRB assay; assay type: functional; settings: NCI-H226, 48 h
[11] = system: HOP-92; assay: Growth inhibition of Homo sapiens (human) HOP92 cells after 48 hr by SRB assay; assay type: functional; settings: HOP-92, 48 h
[12] = system: NCI-H522; assay: Growth inhibition of Homo sapiens (human) NCI-H522 cells after 48 hr by SRB assay; assay type: functional; settings: NCI-H522, 48 h
[13] = system: HL-60(TB); assay: Growth inhibition of Homo sapiens (human) HL-60(TB) cells after 48 hr by SRB assay; assay type: functional; settings: HL-60, 48 h
[14] = system: HOP-62; assay: Growth inhibition of Homo sapiens (human) HOP62 cells after 48 hr by SRB assay; assay type: functional; settings: HOP-62, 48 h
[15] = system: Hs-578T; assay: Growth inhibition of Homo sapiens (human) Hs 578T cells after 48 hr by SRB assay; assay type: functional
[16] = system: NCI/ADR-RES; assay: Growth inhibition of Homo sapiens (human) NCI/ADR-RES cells after 48 hr by SRB assay; assay type: functional
[17] = system: SNB-75; assay: Growth inhibition of Homo sapiens (human) SNB75 cells after 48 hr by SRB assay; assay type: functional; settings: SNB-75, 48 h
[18] = system: SF-295; assay: Growth inhibition of Homo sapiens (human) SF295 cells after 48 hr by SRB assay; assay type: functional; settings: SF-295, 48 h
[19] = system: MDA-MB-468; assay: Growth inhibition of Homo sapiens (human) MDA-MB-468 cells after 48 hr by SRB assay; assay type: functional; settings: MDA-MB-468, 48 h
[20] = system: A549; assay: Growth inhibition of Homo sapiens (human) A549/ATCC cells after 48 hr by SRB assay; assay type: functional; settings: A549, 48 h
[21] = system: EKVX; assay: Growth inhibition of Homo sapiens (human) EKVX cells after 48 hr by SRB assay; assay type: functional
[22] = system: SF-268; assay: Growth inhibition of Homo sapiens (human) SF268 cells after 48 hr by SRB assay; assay type: functional; settings: SF-268, 48 h
[23] = system: MCF7; assay: Growth inhibition of Homo sapiens (human) MCF7 cells after 48 hr by SRB assay; assay type: functional; settings: MCF7, 48 h
[24] = system: NCI-H460; assay: Growth inhibition of Homo sapiens (human) NCI-H460 cells after 48 hr by SRB assay; assay type: functional; settings: NCI-H460, 48 h
[25] = system: MOLT-4; assay: Growth inhibition of Homo sapiens (human) MOLT4 cells after 48 hr by SRB assay; assay type: functional; settings: MOLT-4, 48 h
[26] = system: T47D; assay: Growth inhibition of Homo sapiens (human) T47D cells after 48 hr by SRB assay; assay type: functional
[27] = system: BT-549; assay: Growth inhibition of Homo sapiens (human) BT549 cells after 48 hr by SRB assay; assay type: functional; settings: BT-549, 48 h
[28] = system: SNB-19; assay: Growth inhibition of Homo sapiens (human) SNB19 cells after 48 hr by SRB assay; assay type: functional; settings: SNB-19, 48 h
[29] = system: CCRF-CEM; assay: Growth inhibition of Homo sapiens (human) CCRF-CEM cells after 48 hr by SRB assay; assay type: functional
[30] = system: HOP-92; assay: Growth inhibition of Homo sapiens (human) HOP92 cells at 1 uM after 48 hr by SRB assay; assay type: functional, cell-based
[31] = system: SNB-75; assay: Growth inhibition of Homo sapiens (human) SNB75 cells at 1 uM after 48 hr by SRB assay; assay type: functional, cell-based
[32] = molecular target: Cytochrome P450 1A1 (Homo sapiens, UniProt P04798); assay: Inhibition of recombinant CYP1A1 (unknown origin) using 7-ethoxyresorufin as substrate by EROD assay
Cytochrome P450 1A1, sequence (P04798 whole entry): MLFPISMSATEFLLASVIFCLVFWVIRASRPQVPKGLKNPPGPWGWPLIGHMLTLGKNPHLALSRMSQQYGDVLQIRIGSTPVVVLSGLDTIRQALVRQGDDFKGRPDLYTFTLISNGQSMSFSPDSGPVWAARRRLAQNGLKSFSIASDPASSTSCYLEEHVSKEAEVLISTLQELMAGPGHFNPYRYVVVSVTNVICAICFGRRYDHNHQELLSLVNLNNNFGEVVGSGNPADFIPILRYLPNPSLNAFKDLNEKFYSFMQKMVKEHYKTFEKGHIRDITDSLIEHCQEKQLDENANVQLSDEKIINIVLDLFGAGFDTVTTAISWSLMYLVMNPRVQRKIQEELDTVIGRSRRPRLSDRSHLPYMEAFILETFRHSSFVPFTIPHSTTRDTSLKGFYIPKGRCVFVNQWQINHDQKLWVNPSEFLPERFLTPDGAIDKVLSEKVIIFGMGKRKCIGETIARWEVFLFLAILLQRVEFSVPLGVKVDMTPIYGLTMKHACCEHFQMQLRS

| Compound | GI50 [1] [µM] | GI50 [2] [µM] | GI50 [3] [µM] | GI50 [4] [µM] | GI50 [5] [µM] | GI50 [6] [µM] | GI50 [7] [µM] | GI50 [8] [nM] | GI50 [10] [nM] | GI50 ([11]; read-out: pGI50 (converted)) [nM] | GI50 [13] [µM] | GI50 [14] [µM] | GI50 ([15]; read-out: pGI50 (converted)) [nM] | GI50 [16] [µM] | GI50 ([17]; read-out: pGI50 (converted)) [µM] | GI50 [18] [nM] | GI50 [21] [µM] | GI50 [22] [µM] | GI50 [23] [nM] | GI50 [24] [µM] | also measured |
| --- | --- | --- | --- | --- | --- | --- | --- | --- | --- | --- | --- | --- | --- | --- | --- | --- | --- | --- | --- | --- | --- |
| COc1ccc(Nc2nc3sc4cc(Cl)ccc4n3c(=N)c2C#N)cc1 | 30.9 | 3.31 | 57.5 | 4.07 | 19.1 | 3.09 | 2.04 | 1550 | 1910 | 20900 | 34.7 | 3.39 | 407 | 2.82 | 3.39 | 1700 | 1.91 | 4.37 | 2510 | 26.3 | GI50 [9]: 17 µM; GI50 [12]: 33.1 µM; GI50 ([15]; read-out: GI50): 406 nM; GI50 [19]: 3.55 µM; GI50 [20]: 50.1 µM; GI50 [25]: 13200 nM; GI50 [26]: 29.5 µM; GI50 [27]: 4.07 µM; GI50 [28]: 40.7 µM; GI50 [29]: 17.4 µM |
| N#Cc1c(Nc2ccc(Cl)cc2)nc2sc3cc(Cl)ccc3n2c1=N | 8.71 | 28.2 | > 100 | 6.61 | 2.29 | 6.17 | 7.24 | 646 | 2400 | > 100000 | > 100 | 0.00457 | 1450 | 4.68 | 5.01 | 3020 | 10.2 | 4.07 | 1820 | 21.9 | GI50 ([11]; read-out: GI50): 1820 nM; GI50 [19]: 3.63 µM; GI50 [25]: 2510 nM; GI50 [26]: > 100 µM; GI50 [27]: 24.5 µM; GI50 [28]: > 100 µM |
| CSc1nc2sc3cc(Cl)ccc3n2c(=N)c1C#N | 26.9 | > 100 | 27.5 | 30.2 | 9.77 | > 100 | 74.1 | 26900 | 38000 | 10 | 1.35 | 38 | 4900 | 17.8 | 12.3 | 2190 | 9.77 | 21.4 | 3890 | 63.1 | GI50 [9]: 64.6 µM; GI50 ([11]; read-out: GI50): 219 nM; GI50 [12]: 60.3 µM; GI50 ([15]; read-out: GI50): 1710 nM; GI50 ([17]; read-out: GI50): 0.416 µM; growth inhibition (GI) [30]: Active; growth inhibition (GI) [31]: Active; GI50 [20]: 5.89 µM; GI50 [25]: 2510 nM; GI50 [26]: 28.2 µM; GI50 [27]: 23.4 µM; pIC50 [32]: 5.60; GI50 [28]: 40.7 µM; GI50 [29]: 3.55 µM |
